Laboratory results from US8877234B2, “Preservatives” (Clariant Finance (BVI) Limited, priority 2005, dated 2014).

How the values were obtained:
Aspergillus niger = assay: Minimum inhibitory concentration (MIC), agar dilution method, DIN 58940; type: cell-based
Method: (§1) The MIC values were determined in accordance with DIN 58940 by the agar dilution method.

Candida albicans = assay: as above; type: cell-based
Method: as §1

Pseudomonas aeruginosa = assay: as above; type: cell-based
Method: as §1

Staphyloccus aureus = assay: as above; type: cell-based
Method: as §1

[1] = O/W emulsions and W/O emulsions; 0.5% by weight; cited from earlier work
[2] = cited from earlier work

In the case of `OCCOc1ccccc1` [PE, 2-phenoxyethanol], the MIC in % (Aspergillus niger) was 0.25%, the MIC in % (Candida albicans) was 0.5% and the MIC in % (Pseudomonas aeruginosa) was 0.5%. For the same compound, the MIC in % (Staphyloccus aureus) was 0.25%.
Work on `Cc1cc(CC(C)CC(C)(C)C)n(O)c(=O)c1.NCCO` (centres unmarked) [Octopirox ®, 2-aminoethanol salt of 1-hydroxy-4-methyl-6-(2,4,4-trimethylpentyl)-2(1H)-pyridone] yielded an MIC in % (Aspergillus niger) of 0.004%, an MIC in % (Candida albicans) of 0.004% and an MIC in % (Pseudomonas aeruginosa) of 0.016%. For the same compound, the MIC in % (Staphyloccus aureus) was 0.002%, the antimicrobial activity [1] was “inadequate” and the solubility in oil [2] was “no more than moderate solubility”. For the same compound, the solubility in water [2] was “low solubility”.
